In one assay the target is T1, α4β1 (Homo sapiens, UniProt P05556+P13612).
T1 construct: 100 µl of Jurkat cells (2.5 x 10^6 cells/ml) in DMEM plus BSA; host or cells: Jurkat T-cell line
The experiment in a line: Jurkat-CS-1 assay. The format is cell-based. To be noted: Jurkat cell adhesion to immobilized CS-1 derived peptide. As for the experimental part:
The CS-1 derived peptide, CLHPGEILDVPST, and the scrambled control peptide, CLHGPIELVSDPT, were synthesized on a Beckman 990 synthesizer using t-Boc methodology. The peptides were immobilized onto microtiter plates using the heterobifunctional crosslinker 3-(2-pyridyldithio)propionic acid N-hydroxysuccinimide ester (SPDP) as reported by Pierschbacher et al., Proc. Natl. Acad. USA, 80:1224-1227 (1983). Microtiter plates were coated with 20 µg/ml HSA for 2 hr. at room temperature, washed once with PBS and derivatized with 10 µg/ml SPDP for 1 hr. After washing, 100 µl of a 100 µg/ml cysteine containing peptide solution which had been recently dissolved was added to the wells and allowed to crosslink to the plates overnight at 4 °C. Unbound peptide was removed from plates by washing with PBS. To block non-reacted sites, the plates are coated with 100 µl of a 2.5 mg/ml BSA solution in PBS for 1 hr. at 37 °C. 100 µl of Jurkat cells (2.5 x 10^6 cells/ml) in DMEM plus BSA (2.5 mg/ml) was mixed with an appropriate concentration of the compound to be tested and the mixture was added to peptide coated dishes and incubated for 1 hr. at 37 °C. Generally 100, 20, 5 and 1.25 µM concentrations of the compound were tested.
Following this incubation the plates were washed once with PBS and the attached cells were fixed with 3% paraformaldehyde in PBS and stained with 0.5% toluidine blue in 3.7% formaldehyde. The cells were stained overnight at room temperature and the optical density at 590 nm of toluidine blue stained cells was determined using a vertical pathway spectrophotometer to quantitate attachment (VMAX Kinetic Microplate Reader, Molecular Devices, Menlo Park, CA). This procedure is a modification of a previously published method (Cardarelli et al, J. Biol. Chem., 269:18668-18673 (1994) and Cardarelli et al, Proc. Natl. Acad. Sci. USA, 83:2647-2651 (1986)).

For the next assay, the target named is T2, α4β1 integrin (Homo sapiens, UniProt P05556+P13612).
T2 construct: a T-cell line, Jurkat, known to express the α4β1 integrin; host or cells: Jurkat T-cell line
The assay is described as follows: Jurkat-Endothelial Cell Adhesion Assay (Jurkat EC). In kind it is cell-based. To be noted: Jurkat cell adhesion to IL-1 stimulated endothelial cell monolayers. As for the experimental part:
The following assay established the activity of the present compounds in inhibiting β1-mediated cell adhesion in a representative in vitro system. This assay measures the adhesive interactions of a T-cell line, Jurkat, known to express the α4β1 integrin, to endothelial monolayers in the presence of test compounds. The test compounds were added in increasing concentrations to T-cells and then the T-cell compound mixture was added to IL-1 stimulated endothelial cell monolayers. The plates were incubated, washed and the percentage of attached cells was quantitated.
Human umbilical vein endothelial cells were purchased from Clonetics (San Diego, CA.) at passage number 2. The cells were grown on 0.5% porcine skin gelatin pre-coated flasks (Sigma, St. Louis MO.) in EGM-UV media (Clonetics, San Diego, CA) supplemented with 10% fetal bovine serum. Cells are refed every 2-3 days reaching confluence by day 4 to 6. […] The endothelial cells are not used following passage 6.
The T-cell line Jurkat was obtained from American Type Tissue Culture Collection (Rockville, MD) and the cells were cultured in RPMI containing 10 % fetal calf serum. The cells were washed twice in Hank's Balanced Salt Solution (HBSS) and resuspended in Dulbecco's Minimal Eagle's Media (DMEM) containing 2.5 mg/ml Human Serum Albumin (HSA). Jurkat cells (1x10^6 cells/ml) were stained with 10 ng/ml BCECF-AM (Molecular Probes, Eugene, OR)) in HBSS without phenol red. The cells were loaded with BCECF for 60 minutes in the dark at 37°C, washed 2 times, and resuspended in DMEM-HSA solution.
Confluent endothelial monolayers, grown in 96-well tissue culture plates, were stimulated for 4 hr. at 37 °C with 0.1 ng/ml (∼50 U/ml) recombinant IL-1 (Amgen, Thousand Oaks, CA). Following this incubation, the monolayers were washed twice with HBSS and 0.1 ml of DMEM-HSA solution was added. Jurkat cells (5 x 10^5 cells) were combined with the appropriate concentration of the test compound and 0.1 ml of the Jurkat cell-compound mixture was added to the endothelial cell monolayers. Generally, 100, 20, 5 and 1.25 µM compound concentrations were tested. […] Following this incubation, the monolayers were washed twice with PBS containing 1 mM calcium chloride and 1 mM magnesium chloride' and the plates were read using a Millipore Cytofluor 2300 (Marlboro, MA.). Fluorescence in each well was measured as Arbitrary Fluorescence Units and percent adhesion in the absence of compound was adjusted to 100% and the % adhesion in the presence of compound was calculated. Monolayers were also fixed in 3% paraformaldehyde and evaluated microscopically to verify the adhesion. This procedure is a modification of a previously published method (Cardarelli et al., J. Biol. Chem. 269:18668-18673 (1994)).

Each structure is given as a SMILES string. Structures can show the parent of a compound that is named as a salt.

23 molecules from EP1144365B1 (TANABE SEIYAKU CO., LTD., priority 1998, dated 2000) can be followed below.

As usually defined, the IC50 is the concentration at which inhibition is half-maximal. Lower therefore signals greater potency in that assay.

T2 sequence (P13612 34-1032): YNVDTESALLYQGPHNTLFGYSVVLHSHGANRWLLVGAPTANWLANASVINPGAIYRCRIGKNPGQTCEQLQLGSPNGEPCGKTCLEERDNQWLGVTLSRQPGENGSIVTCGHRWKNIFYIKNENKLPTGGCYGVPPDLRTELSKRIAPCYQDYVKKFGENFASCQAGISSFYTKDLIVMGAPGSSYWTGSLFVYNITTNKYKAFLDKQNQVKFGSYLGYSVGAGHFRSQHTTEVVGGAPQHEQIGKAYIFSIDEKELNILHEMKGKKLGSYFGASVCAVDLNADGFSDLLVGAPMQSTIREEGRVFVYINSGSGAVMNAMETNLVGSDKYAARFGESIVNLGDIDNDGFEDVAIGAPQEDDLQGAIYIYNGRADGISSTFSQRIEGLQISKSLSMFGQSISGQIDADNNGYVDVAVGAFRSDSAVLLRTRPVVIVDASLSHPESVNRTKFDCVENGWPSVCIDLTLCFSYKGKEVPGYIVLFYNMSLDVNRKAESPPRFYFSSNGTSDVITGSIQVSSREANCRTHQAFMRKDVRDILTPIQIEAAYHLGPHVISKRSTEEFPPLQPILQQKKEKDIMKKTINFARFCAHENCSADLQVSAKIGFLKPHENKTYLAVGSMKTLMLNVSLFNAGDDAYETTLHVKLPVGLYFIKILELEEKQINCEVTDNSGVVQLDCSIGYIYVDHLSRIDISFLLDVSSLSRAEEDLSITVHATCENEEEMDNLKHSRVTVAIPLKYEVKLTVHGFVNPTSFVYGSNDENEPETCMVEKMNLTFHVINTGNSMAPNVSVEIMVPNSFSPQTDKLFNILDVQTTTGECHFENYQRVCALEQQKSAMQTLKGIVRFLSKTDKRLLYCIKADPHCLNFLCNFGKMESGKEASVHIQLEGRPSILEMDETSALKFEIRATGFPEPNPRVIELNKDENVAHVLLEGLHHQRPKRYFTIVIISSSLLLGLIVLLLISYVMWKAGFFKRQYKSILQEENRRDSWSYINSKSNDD
T2 sequence (P05556 21-798): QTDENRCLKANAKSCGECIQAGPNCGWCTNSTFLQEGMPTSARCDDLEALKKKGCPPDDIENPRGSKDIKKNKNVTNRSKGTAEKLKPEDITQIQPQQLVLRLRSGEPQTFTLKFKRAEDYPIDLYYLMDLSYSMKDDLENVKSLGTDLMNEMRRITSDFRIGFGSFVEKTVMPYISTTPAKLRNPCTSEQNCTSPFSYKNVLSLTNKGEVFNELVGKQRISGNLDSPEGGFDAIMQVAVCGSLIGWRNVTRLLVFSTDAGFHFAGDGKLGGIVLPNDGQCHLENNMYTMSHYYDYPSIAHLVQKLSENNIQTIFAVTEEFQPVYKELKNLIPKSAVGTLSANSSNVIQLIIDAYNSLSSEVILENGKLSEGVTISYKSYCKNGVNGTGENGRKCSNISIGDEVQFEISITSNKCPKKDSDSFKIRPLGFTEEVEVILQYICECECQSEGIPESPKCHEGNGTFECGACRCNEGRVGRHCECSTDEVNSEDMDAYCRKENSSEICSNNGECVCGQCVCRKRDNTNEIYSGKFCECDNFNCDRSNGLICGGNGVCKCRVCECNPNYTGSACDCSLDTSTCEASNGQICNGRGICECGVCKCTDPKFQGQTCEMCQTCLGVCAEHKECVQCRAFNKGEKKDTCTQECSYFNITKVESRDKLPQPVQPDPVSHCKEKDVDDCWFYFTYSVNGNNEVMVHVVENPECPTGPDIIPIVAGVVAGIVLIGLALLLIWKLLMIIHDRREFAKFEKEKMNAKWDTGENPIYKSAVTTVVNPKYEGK
T1 sequence (P13612 34-1032): as the sequence (P13612 34-1032) above
T1 sequence (P05556 21-798): as the sequence (P05556 21-798) above

Regarding `O=C(NC1(C(=O)N[C@@H](Cc2ccc(NC(=O)c3c(Cl)cccc3Cl)cc2)C(=O)O)CC2CCC1C2)c1cc(C(=O)O)[nH]n1` (stereo partly shown) [Example 74], the IC50 at α4β1 fell in the range of 80 to 500 nM; at α4β1 integrin it was 800 to 5000 nM.

As to `CC(=O)[C@@H]1C[C@H](C(=O)N[C@@H](Cc2ccc(NC(=O)c3c(Cl)cccc3Cl)cc2)C(=O)O)C1(C)C` [Example 97, (1S-cis)-N-[(3-Acetyl-2,2-dimethylcyclobutyl)carbonyl]-4-[(2,6-dichlorobenzoyl)amino)-L-phenylalanine], the IC50 was no more than 80 nM at α4β1 and no more than 800 nM at α4β1 integrin.

In the case of `O=C(O)c1ccc(C(=O)NC2(C(=O)N[C@@H](Cc3ccc(NC(=O)c4c(Cl)cccc4Cl)cc3)C(=O)O)CCCCC2)nc1` [Example 63], the values for the IC50 against α4β1 and against α4β1 integrin were 80 to 500 nM and no more than 800 nM, respectively.

Turning to `O=C(NC1CCCCC1C(=O)NC(Cc1ccc(NC(=O)c2c(Cl)cccc2Cl)cc1)C(=O)O)c1cc(C(=O)O)[nH]n1` (stereo not shown) [Example 83], the IC50 at α4β1 is no more than 80 nM; against α4β1 integrin, no more than 800 nM.

`O=C(O)c1ccc(C(=O)NC2CCCCC2C(=O)NC(Cc2ccc(NC(=O)c3c(Cl)cccc3Cl)cc2)C(=O)O)nc1` (stereo not shown) [Example 81]: the IC50 was in the range of 80 to 500 nM against α4β1 and 800 to 5000 nM against α4β1 integrin.

Consider `CC1=C(C(=O)N[C@@H](Cc2ccc(OCc3c(Cl)cccc3Cl)cc2)C(=O)O)C(C)(C)CC/C1=C\C(=O)O` [Example 119, N-[[(3E)-3-Carboxymethylene-2,6,6-trimethyl-1-cyclohexen-1-yl]carbonyl]-4-O-(2,6-dichlorophenylmethyl)-L-tyrosine], for which the IC50 at α4β1 is no more than 80 nM; against α4β1 integrin, no more than 800 nM.

For `O=C(NC1(C(=O)N[C@@H](Cc2ccc(NC(=O)c3c(Cl)cccc3Cl)cc2)C(=O)O)CCCCC1)c1cccnc1` [Example 61], the IC50 against α4β1 was 80 to 500 nM; against α4β1 integrin, no more than 800 nM.

Turning to `CC(=O)[C@H]1C[C@@H](C(=O)N[C@@H](Cc2ccc(NC(=O)c3c(Cl)cccc3Cl)cc2)C(=O)O)C1(C)C` [Example 101, (1R-cis)-N-[(3-Acetyl-2,2-dimethyleyclobutyl)carbonyl]-4-[(2,6-dichlorobenzoyl)-amino]-L-phenylalanine], the IC50 on α4β1 fell in the range of 80 to 500 nM; against α4β1 integrin, 800 to 5000 nM.

In the case of `O=C(O)c1cccc(C(=O)NC2(C(=O)N[C@@H](Cc3ccc(NC(=O)c4c(Cl)cccc4Cl)cc3)C(=O)O)CCCCC2)n1` [Example 62], the IC50 against α4β1 is 80 to 500 nM; on α4β1 integrin, 800 to 5000 nM.

In the case of `CC(=O)[C@H]1C[C@H](C(=O)N[C@@H](Cc2ccc(NC(=O)c3ccc(Cl)nc3Cl)cc2)C(=O)O)C1(C)C` [Example 106, (1S-trans)-N-[(3-Acetyl-2,2-dimethylcyclobutyl)carbonyl]-4-[[(2,6-dichloro-3-pyridinyl)carbonyl]amino]-L-phenylalanine], the IC50 lay within 80 to 500 nM against α4β1 and 800 to 5000 nM against α4β1 integrin.

For the molecule `O=C(Nc1ccc(C[C@H](NC(=O)C2(NC(=O)C3CCOC3)CC3CCC2C3)C(=O)O)cc1)c1c(Cl)cccc1Cl` (stereo partly shown) [Example 78], the IC50 was 80 to 500 nM on α4β1 and no more than 800 nM against α4β1 integrin.

Consider `O=C(Nc1ccc(C[C@H](NC(=O)N2CCCC(C(=O)O)C2)C(=O)O)cc1)c1c(Cl)cccc1Cl` (stereo partly drawn) [Example 115, 1-[[((1S)-1-carboxy-2-[4-[(2,6-dichlorobenzoyl)amino]phenyl]ethyl)amino]carbonyl]-3-piperidinecarboxylic acid], for which the IC50 on α4β1 fell in the range of 80 to 500 nM; at α4β1 integrin it was 800 to 5000 nM.

`CC1(C)CC(C(=O)O)CC/C1=C\C(=O)N[C@@H](Cc1ccc(NC(=O)c2c(Cl)cccc2Cl)cc1)C(=O)O` (stereo partly drawn) [Example 128, N-[(1E)-4-Carboxy-2,2-dimethyl-1-cyclohexylideneacetyl]-4-[(2,6-dichlorobenzoyl)amino]-L-phenylalanine]: the IC50 against α4β1 lay within 80 to 500 nM; against α4β1 integrin, 800 to 5000 nM.

Regarding `O=C(O)C=C1CCC(C(=O)N[C@@H](Cc2ccc(NC(=O)c3c(Cl)cccc3Cl)cc2)C(=O)O)CC1` (stereo partly drawn) [Example 126, N-[[4-(Carboxymethylene)cyclohexyl]carbonyl]-4-[(2,6-dichlorobenzoyl)amino]-L-phenylalanine], the IC50 was no more than 80 nM at α4β1 and 800 to 5000 nM at α4β1 integrin.

For the molecule `CC1(C)[C@@H](CC(=O)N[C@@H](Cc2ccc(NC(=O)c3c(Cl)cccc3Cl)cc2)C(=O)O)C[C@H]1C(=O)O` [Example 93, (1R-cis)-N-[(3-Carboxy-2,2-dimethylcyclobutyl)acetyl]-4-[(2,6-dichlorobenzoyl)amino]-L-phenylalanine], the IC50 at α4β1 lay in the range of 80 to 500 nM; against α4β1 integrin it was 800 to 5000 nM.

`O=C(NC1(C(=O)N[C@@H](Cc2ccc(NC(=O)c3c(Cl)cccc3Cl)cc2)C(=O)O)CCCCC1)c1cc(O)c2ccccc2n1` [Example 64]: the IC50 at α4β1 was in the range of 80 to 500 nM; on α4β1 integrin, 800 to 5000 nM.

`O=C(O)c1ccc(C(=O)NC2(C(=O)N[C@@H](Cc3ccc(NC(=O)c4c(Cl)cccc4Cl)cc3)C(=O)O)CC3CCC2C3)nc1` (stereo partly shown) [Example 72]: the values for the IC50 against α4β1 and on α4β1 integrin were 80 to 500 nM and no more than 800 nM, respectively.

As for `O=C(O)/C=C1\CCCc2cc(C(=O)N[C@@H](Cc3ccc(NC(=O)c4c(Cl)cccc4Cl)cc3)C(=O)O)ccc21` [Example 135, N-[[(5E)-5-Carboxymethylene-7,8-dihydro-2(6H)-naphthyl]carbonyl]-4-[(2,6-dichlorobenzoyl)amino]-L-phenylalanine sodium salt], the IC50 on α4β1 is 500 to 1000 nM; on α4β1 integrin, 5000 to 10000 nM.

As to `O=C(Nc1ccc(C[C@H](NC(=O)C2(NC(=O)C3CCCO3)CC3CCC2C3)C(=O)O)cc1)c1c(Cl)cccc1Cl` (stereo partly shown) [Example 77], the figures for the IC50 on α4β1 and against α4β1 integrin were 80 to 500 nM and no more than 800 nM, respectively.

Turning to `CC1(C)[C@@H](C(=O)O)C[C@@H]1C(=O)N[C@@H](Cc1ccc(NC(=O)c2c(Cl)cccc2Cl)cc1)C(=O)O` [Example 98, (1S-trans)-N-[(3-Carboxy-2,2-dimethylcyclobutyl)carbonyl]-4-[(2,6-dichlorobenzoyl)amino]-L-phenylalanine], the IC50 at α4β1 is 80 to 500 nM; against α4β1 integrin, no more than 800 nM.

On to `O=C(Nc1ccc(C[C@H](NC(=O)C2(NC(=O)C3NC(C(=O)O)CS3)CCCCC2)C(=O)O)cc1)c1c(Cl)cccc1Cl` (stereo partly shown) [Example 66], for which the 50% inhibitory concentration (IC50) on α4β1 is 80 to 500 nM; on α4β1 integrin, no more than 800 nM.

For the molecule `O=C(O)/C=C\C(=O)Nc1cccc(C(=O)N[C@@H](Cc2ccc(NC(=O)c3c(Cl)cccc3Cl)cc2)C(=O)O)c1` [Example 36], the IC50 is 500 to 1000 nM against α4β1 and 800 to 5000 nM on α4β1 integrin.

In the case of `COc1ccc(C(=O)NC2(C(=O)N[C@@H](Cc3ccc(NC(=O)c4c(Cl)cccc4Cl)cc3)C(=O)O)CCCCC2)cc1OC` [Example 55], the figures for the IC50 at α4β1 and against α4β1 integrin were 80 to 500 nM and 800 to 5000 nM, respectively.
